Data from patent US7414054B2, “3-(arylamino)methylene-1, 3-dihydro-2H-indol-2-ones as kinase inhibitors” (Allergan, Inc., priority 2001, dated 2008).

What was measured:
[1] = tested on: VEGF induced increases in intracellular calcium levels in HUVEC (human umbilical vein endothelial cells); assay: VEGF Stimulated Ca++ Signal In Vitro (FLIPR); type: cell-based; settings: VEGF 5 ng/mL; for IC50: 0.01 to 10.0 μM
Protocol: VEGF Stimulated Ca^++ Signal In Vitro
(§1) Automated FLIPR (Fluorometric Imaging Plate Reader) technology was used to screen for inhibitors of VEGF induced increases in intracellular calcium levels in fluorescent dye loaded endothelial cells. HUVEC (human umbilical vein endothelial cells) (Clonetics) were seeded in 96-well fibronectin coated black-walled plates overnight at 37° C./5% CO2. Cells were loaded with calcium indicator Fluo-4 for 45 minutes at 37° C. Cells were washed 4 times (Original Cell Wash, Labsystems) to remove extracellular dye. Test compounds were reconstituted in 100% DMSO and added to the cells to give a final DMSO concentration of 0.1%. For screening, cells were pre-incubated with test agents for 30 minutes, at a single concentration (10 μM) or at concentrations ranging from 0.01 to 10.0 μM followed by VEGF stimulation (5 ng/mL). Changes in fluorescence at 516 nm were measured simultaneously in all 96 wells using a cooled CCD camera. Data were generated by determining max-min fluorescence levels for unstimulated, stimulated, and drug treated samples. IC50 values for test compounds were calculated from % inhibition of VEGF stimulated responses in the absence of inhibitor. Protocol for KDR Assay: KDR Assay: The cytoplasmic domain of the human VEGF receptor (VEGFR-2) was expressed as a Histidine-tagged fusion protein following infection of insect cells using an engineered baculovirus. His-VEGFR-2 was purified to homogeneity, as determined by SDS-PAGE, using nickel resin chromatography. Kinase assays were performed in 96 well microtiter plates that were coated overnight with 30 μg of poly-Glu-Tyr (4:1) in 10 mM Phosphate Buffered Saline (PBS), pH 7.2-7.4. The plates were incubated with 1% BSA and then washed four times with PBS prior to starting the reaction. Reactions were carried out in 120 μL reaction volumes containing 3.6 μM ATP in kinase buffer (50 mM Hepes buffer pH 7.4, 20 mM MgCl2, 0.1 mM MnCl2 and 0.2 mM Na3VO4). Test compounds were reconstituted in 100% DMSO and added to the reaction to give a final DMSO concentration of 5%. Reactions were initiated by the addition 0.5 ng of purified protein. Following a ten minute incubation at 25° C., the reactions were washed four times with PBS containing 0.05% Tween-20. 100 μl of a monoclonal anti-phosphotyrosine antibody-peroxidase conjugate was diluted 1:10000 in PBS-Tween-20 and added to the wells for 30 minutes. Following four washes with PBS-Tween-20, 100 μl of O-phenylenediamine Dihydrochloride in Phosphate-citrate buffer, containing urea hydrogen peroxide, was added to the wells for 7 minutes as a colorimetric substrate for the peroxidase. The reaction was terminated by the addition of 100 μl of 2.5N H2SO4 to each well and read using a microplate ELISA reader set at 492 nm. IC50 values for compound inhibition were calculated directly from graphs of optical density (arbitrary units) versus compound concentration following subtraction of blank values. VEGF-induced Dermal Extravasation in Guinea Pig (Miles Assay). Male Hartley guinea pigs (300-600 g) were anesthetized with isofluorane, sheared, and given a single dose of drug or the respective vehicle. The guinea pigs were dosed orally unless indicated otherwise in Table 3. Ten minutes prior to the end of drug treatment, guinea pigs were anesthetized with isofluorane, and 0.5% Evans blue dye (EBD) in PBS (13-15 mg/kg dose of EBD) was injected intravenously. After 5 minutes, triplicate intradermal injections of 100 ng rhVEGF165 in 100 μl PBS and of 100 μl PBS alone were administered on the flank. After 20 minutes, each animal was euthanized with Pentosol, and the skin containing the intradermal injection sites was removed for image analysis.

[2] = biological target: T1, cytoplasmic domain of the human VEGF receptor (VEGFR-2) (Homo sapiens, UniProt P35968); assay: KDR Assay; type: biochemical; settings: His-VEGFR-2; 3.6 μM ATP
T1 construct: The cytoplasmic domain of the human VEGF receptor (VEGFR-2) was expressed as a Histidine-tagged fusion protein; His (Histidine tag); made in house; host or cells: insect cells (baculovirus)
Protocol: as §1, with “Following four washes with PBS-Tween-20, 100 μl of O-phenylenediamine Dihydrochloride in Phosphate-citrate buffer, containing urea hydrogen peroxide, was added to the wells for 7 minutes as a colorimetric substrate for the peroxidase.” left out, “VEGF-induced Dermal Extravasation in Guinea Pig (Miles Assay). Male Hartley guinea pigs (300-600 g) were anesthetized with isofluorane, sheared, and given a single dose of drug or the respective vehicle. The guinea pigs were dosed orally unless indicated otherwise in Table 3. Ten minutes prior to the end of drug treatment, guinea pigs were anesthetized with isofluorane, and 0.5% Evans blue dye (EBD) in PBS (13-15 mg/kg dose of EBD) was injected intravenously. After 5 minutes, triplicate intradermal injections of 100 ng rhVEGF165 in 100 μl PBS and of 100 μl PBS alone were administered on the flank. After 20 minutes, each animal was euthanized with Pentosol, and the skin containing the intradermal injection sites was removed for image analysis.” left out

[3] = tested on: laser-induced choroidal neovascularization; assay: Laser-induced Choroidal Neovascularization (CNV) in Rat (CNV Assay); type: in vivo
Protocol: Laser-induced Choroidal Neovascularization (CNV) in Rat (CNV Assay). CNV was induced and quantified in this model as previously described (Edelman and Castro. Exp. Eye Res. 2000; 71:523-533). On day 0, male Brown Norway rats (200-300 g) were anesthetized with 100 mg/kg Ketamine and 10 mg/kg Xylazine, and pupils were dilated with 1% Tropicamide. Using the blue-green setting of a Coherent Novus Argon Laser, 3 laser burns (90 mW for 0.1 s; 100 μm diameter) were given to each eye between the retinal vessels around the optic nerve head. Rats were dosed with test compounds in their indicated vehicles orally once daily.
On day 10, rats were sacrificed with 100% CO2, and blood vessels were labeled by vascular perfusion with 10 mg/ml FITC-dextran (MW 2×10^6). Using an epifluorescence microscope (20×) coupled to a spot digital camera and a PC, images were obtained from the flat mounts of the RPE-choroid-sclera from each eye, and the area occupied by hyperfluorescent neovessels within each laser lesion was measured using ImagePro 4 software.
To determine the dose required for 50% inhibition (ID50), the percent inhibition data was plotted as a function of oral dose, using the ‘best-fit’ analysis within MicroSoft Excel software. The ID50 value was verified visually by using the plotted data (horizontal line from 50% y value, at intersection with best-fit line drop vertical line to x axis (dose)).

T1 sequence (P35968 786-1356 limits assumed): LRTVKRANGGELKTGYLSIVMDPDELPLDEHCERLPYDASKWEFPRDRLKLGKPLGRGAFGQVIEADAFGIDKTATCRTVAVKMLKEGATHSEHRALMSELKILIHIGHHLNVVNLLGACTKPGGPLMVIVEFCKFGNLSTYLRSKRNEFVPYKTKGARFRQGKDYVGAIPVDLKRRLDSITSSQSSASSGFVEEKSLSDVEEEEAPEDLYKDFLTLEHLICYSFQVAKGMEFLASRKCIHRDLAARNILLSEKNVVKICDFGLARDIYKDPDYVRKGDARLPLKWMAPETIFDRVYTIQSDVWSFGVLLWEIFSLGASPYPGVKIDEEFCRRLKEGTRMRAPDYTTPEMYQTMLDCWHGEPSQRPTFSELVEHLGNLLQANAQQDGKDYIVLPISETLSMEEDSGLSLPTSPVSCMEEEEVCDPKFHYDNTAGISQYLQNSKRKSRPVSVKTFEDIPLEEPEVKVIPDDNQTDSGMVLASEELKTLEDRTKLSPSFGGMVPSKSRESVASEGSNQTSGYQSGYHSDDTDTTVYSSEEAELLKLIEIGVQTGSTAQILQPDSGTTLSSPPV

| Compound | VEGF Stimulated Ca^++ signal assay % inhibition @ 10 μM [1] | IC50 [2] | also measured |
| --- | --- | --- | --- |
| 4-(5-Chloro-2-oxo-1,2-dihydro-indol-3-ylidenemethyl)-6-indazolylamine [Example 103] | 96.59% | 480 nM | IC50 [1]: 1040 nM |
| O=C1Nc2ccccc2C1=CNc1cccc(Br)c1 [Example 2] | −0.5% | – | – |
| O=C1Nc2ccccc2C1=CNc1ccc(N2CCOCC2)cc1 [Example 40] | – | – | CNV Assay % inhibition (result in words) ([3]; 100 mg/kg (sid), PEG400, oral): toxic |
| CC(O)c1ccc(NC=C2C(=O)Nc3ccc(Cl)cc32)cc1 (stereo not shown) [Example 72, 5-Chloro-3-{[4-(1-hydroxy-ethyl)-phenylamino]-methylene}-1,3-dihydro-indol-2-one] | 81.50% | – | IC50 [1]: 1560 nM |
| O=C1Nc2ccccc2C1=CNc1ccc2c(c1)OCO2 [Example 80, 3-[(3,4-Methylenedioxyphenylamino)-methylene]-11,3-dihydro-indol-2-one] | 3.50% | – | – |
| COc1ccc(NC=C2C(=O)Nc3ccc(Cl)cc32)cc1F [Example 105, 5-Chloro-3-[(3-fluoro-4-methoxyphenylamino)-methylene]-1,3-dihydro-indol-2-one] | – | – | inhibition at 10 µM ([1]; Homo sapiens): 17.5% |
| Cc1cccc2c1C(=CNc1ccc(C(=O)O)c(O)c1)C(=O)N2 [Example 155, 2-Hydroxy-4-[(4-methyl-2-oxo-1,2-dihydro-indol-3-ylidenemethyl)-amino]-benzoic acid] | – | 400 nM | – |
| CCN(CC)Cc1cc(NC=C2C(=O)Nc3cccc(C)c32)ccc1O [Example 161, 3-[(3-Diethylaminomethyl-4-hydroxy-phenylamino)-methylene]-4-methyl-1,3-dihydro-indol-2-one] | – | 160 nM | – |
| CCN(CC)CCCOc1ccc(NC=C2C(=O)Nc3ccccc32)cc1 [Example 214, 3-{[4-(3-Diethylamino-propoxy)-phenylamino]-methylene}-1,3-dihydro-indol-2-one] | – | – | inhibition in vivo at 80 mg/kg ([3]; Rattus norvegicus, 240 h, 80 mg/kg (sid), corn oil, oral): 85% |
| O=C1Nc2ccc(F)cc2C1=CNc1ccc(N2CCCCC2)cc1 [Example 221] | – | 380 nM | inhibition at 10 µM ([1]; Homo sapiens): 97.6%; IC50 ([1]; Homo sapiens): ≤ 1000 nM |
| Cc1cccc2c1C(=CNc1ccc(NCCN3CCOCC3)cc1)C(=O)N2 [Example 242, 4-Methyl-3-{[4-(2-morpholin-4-yl-ethylamino)-phenylamino]-methylene}-1,3-dihydro-indol-2-one] | 95.82% | – | – |
